# Laboratory results published in article PMC2909581 (Clinical cancer research : an official journal of the …, 2010).
# Read-outs that look alike come from different tables or passages of the source.
# Assays:
# [1] = Sorafenib and N-oxide metabolite plasma pharmacokinetics; type: in vivo, human
# Hsp90 = test: Western blot of PBMC lysates: Hsp90 levels; type: in vivo, human
# renal cancer = conditions: no prior VEGF inhibitor therapy; cited from earlier work
# [2] = in vivo
# melanoma = conditions: single agent; cited from earlier work
# Tumor Hsp90 = conditions: cited from earlier work
# kidney cancer = conditions: no prior VEGF inhibitor therapy, single agent; cited from earlier work
# clinical = type: in vivo, human; conditions: for Cmax on days 1 and 15 compared: concurrent sorafenib
# [3] = Phase I toxicity assessment
# Hsp70 = test: Western blot of PBMC lysates: Hsp70 levels; type: in vivo, human
# [4] = Maximum, Day 1, in combination with tanespimycin
# [5] = Maximum, Day −1, sorafenib given alone
# [6] = Minimum, Day 1, in combination with tanespimycin
# [7] = Minimum, Day −1, sorafenib given alone
# [8] = number of patients, tanespimycin 300 mg/m^2 (n = 3) + sorafenib
# [9] = number of patients, tanespimycin 350 mg/m^2 (n = 7) + sorafenib
# [10] = number of patients, tanespimycin 400 mg/m^2 (n = 11) + sorafenib
# [11] = number of patients, tanespimycin 450 mg/m^2 (n = 6) + sorafenib
# [12] = Mean, Day 1, in combination with tanespimycin, steady-state, eleven patients
# [13] = Mean, Day −1, sorafenib given alone, steady-state, eleven patients
compound,measurement,setting,value
CNC(=O)c1cc(Oc2ccc(NC(=O)Nc3ccc(Cl)c(C(F)(F)F)c3)cc2)ccn1 [sorafenib],AUClast,[1]; [4],146.8 µM·h
same,Cmax,[1]; [4],26.6 µM
same,Tmax,[1]; [4],10.0 h
same,AUClast,[1]; [5],181.2 µM·h
same,Cmax,[1]; [5],22.5 µM
same,Tmax,[1]; [5],10.0 h
same,AUClast,[1]; [6],46.7 µM·h
same,Cmax,[1]; [6],6.6 µM
same,Tmax,[1]; [6],1.0 h
same,AUClast,[1]; [7],44.3 µM·h
same,Cmax,[1]; [7],5.8 µM
same,Tmax,[1]; [7],1.0 h
same,AUC,"[1]; human, plasma, po",90.7 µM·h
same,Tmax,"[1]; human, plasma, po, 400 mg",1 to 10 h
same,mean steady-state trough levels,"[1]; plasma, sorafenib 400 mg twice daily",8.0 µM
same,time of chronic treatment until plasma concentration reached the steady-state,[1]; sorafenib 400 mg twice daily,7 days
same,effect of coadministration of 17-AAG on systemic exposure,[1]; sorafenib 400 mg twice daily with 17-AAG,did not significantly alter
same,effect on Hsp90 levels,Hsp90; sorafenib therapy,not affected
same,response rate,renal cancer,10%
same,patients requiring dose modifications,[2]; human,3 patients
same,patients with treatment interruptions,[2]; human,5 patients
same,predominant toxicities attributed,[2],hand-foot syndrome and diarrhea
"C=CCNC1=C2C[C@@H](C)C[C@H](OC)[C@H](O)[C@@H](C)/C=C(\C)[C@H](OC(N)=O)[C@@H](OC)/C=C\C=C(/C)C(=O)NC(=CC1=O)C2=O [tanespimycin, 17-demethoxy-allylaminogeldanamycin]",response in phase II trial,melanoma,no objective responses or disease stabilization
same,higher binding affinity of tumor Hsp90 (multi-chaperone complexes),Tumor Hsp90,100 fold
same,patient samples with decrease in Hsp90 levels,Hsp90; after tanespimycin therapy (on sorafenib),6 of the 14
same,response in phase II trial,kidney cancer,no objective responses
same,Cmax on days 1 and 15 compared,clinical,similar
same,half-life,"clinical; human, plasma, iv",3.6 h
same,Cmax (end of infusion) and AUC versus tanespimycin dose,clinical; intravenous infusion 300-450 mg/m^2,increased with increasing tanespimycin dose
same,clearance (Mean ± SD),"clinical; intravenous infusion, range 4.8 to 32.9 L/h/m^2",15.0 ± 7.9 L/h/m^2
same,patients with treatment interruptions,"[3]; human, in vivo",2 patients
same,recommended phase II dose,"[3]; in combination with sorafenib, intravenous, days 1, 8 and 15 every 28 days",400 mg/m^2
same,Diarrhea Grade1,[3]; [8],1
same,Diarrhea Grade2,[3]; [8],1
same,Diarrhea Grade3,[3]; [8],0
same,Diarrhea Grade4,[3]; [8],0
same,Fatigue Grade1,[3]; [8],3
same,Fatigue Grade2,[3]; [8],0
same,Fatigue Grade3,[3]; [8],0
same,Fatigue Grade4,[3]; [8],0
same,Hand-Foot syndrome Grade1,[3]; [8],1
same,Hand-Foot syndrome Grade2,[3]; [8],0
same,Hand-Foot syndrome Grade3,[3]; [8],0
same,Hand-Foot syndrome Grade4,[3]; [8],0
same,Headache Grade1,[3]; [8],1
same,Headache Grade2,[3]; [8],0
same,Headache Grade3,[3]; [8],0
same,Headache Grade4,[3]; [8],0
same,Liver function abnormality Grade1,[3]; [8],0
same,Liver function abnormality Grade2,[3]; [8],1
same,Liver function abnormality Grade3,[3]; [8],0
same,Liver function abnormality Grade4,[3]; [8],0
same,Nausea Grade1,[3]; [8],1
same,Nausea Grade2,[3]; [8],0
same,Nausea Grade3,[3]; [8],0
same,Nausea Grade4,[3]; [8],0
same,Other toxicity Grade1,[3]; [8],0
same,Other toxicity Grade2,[3]; [8],3
same,Other toxicity Grade3,[3]; [8],0
same,Other toxicity Grade4,[3]; [8],0
same,Bleeding Grade1,[3]; [9],1
same,Bleeding Grade2,[3]; [9],1
same,Bleeding Grade3,[3]; [9],0
same,Bleeding Grade4,[3]; [9],0
same,Creatinine Grade1,[3]; [9],1
same,Creatinine Grade2,[3]; [9],1
same,Creatinine Grade3,[3]; [9],0
same,Creatinine Grade4,[3]; [9],0
same,Diarrhea Grade1,[3]; [9],3
same,Diarrhea Grade2,[3]; [9],1
same,Diarrhea Grade3,[3]; [9],1
same,Diarrhea Grade4,[3]; [9],0
same,Emesis Grade1,[3]; [9],2
same,Emesis Grade2,[3]; [9],3
same,Emesis Grade3,[3]; [9],1
same,Emesis Grade4,[3]; [9],0
same,Fatigue Grade1,[3]; [9],2
same,Fatigue Grade2,[3]; [9],0
same,Fatigue Grade3,[3]; [9],0
same,Fatigue Grade4,[3]; [9],0
same,Hand-Foot syndrome Grade1,[3]; [9],0
same,Hand-Foot syndrome Grade2,[3]; [9],2
same,Hand-Foot syndrome Grade3,[3]; [9],0
same,Hand-Foot syndrome Grade4,[3]; [9],0
same,Headache Grade1,[3]; [9],1
same,Headache Grade2,[3]; [9],1
same,Headache Grade3,[3]; [9],0
same,Headache Grade4,[3]; [9],0
same,Hemoglobin Grade1,[3]; [9],1
same,Hemoglobin Grade2,[3]; [9],0
same,Hemoglobin Grade3,[3]; [9],0
same,Hemoglobin Grade4,[3]; [9],0
same,Liver function abnormality Grade1,[3]; [9],2
same,Liver function abnormality Grade2,[3]; [9],0
same,Liver function abnormality Grade3,[3]; [9],0
same,Liver function abnormality Grade4,[3]; [9],0
same,Myalgias Grade1,[3]; [9],1
same,Myalgias Grade2,[3]; [9],0
same,Myalgias Grade3,[3]; [9],0
same,Myalgias Grade4,[3]; [9],0
same,Nausea Grade1,[3]; [9],3
same,Nausea Grade2,[3]; [9],2
same,Nausea Grade3,[3]; [9],0
same,Nausea Grade4,[3]; [9],0
same,Other toxicity Grade1,[3]; [9],5
same,Other toxicity Grade2,[3]; [9],1
same,Other toxicity Grade3,[3]; [9],1
same,Other toxicity Grade4,[3]; [9],0
same,Platelets Grade1,[3]; [9],1
same,Platelets Grade2,[3]; [9],0
same,Platelets Grade3,[3]; [9],0
same,Platelets Grade4,[3]; [9],0
same,Creatinine Grade1,[3]; [10],0
same,Creatinine Grade2,[3]; [10],1
same,Creatinine Grade3,[3]; [10],0
same,Creatinine Grade4,[3]; [10],0
same,Diarrhea Grade1,[3]; [10],1
same,Diarrhea Grade2,[3]; [10],1
same,Diarrhea Grade3,[3]; [10],0
same,Diarrhea Grade4,[3]; [10],0
same,Dyspnea Grade1,[3]; [10],0
same,Dyspnea Grade2,[3]; [10],0
same,Dyspnea Grade3,[3]; [10],1
same,Dyspnea Grade4,[3]; [10],1
same,Emesis Grade2,[3]; [10],0
same,Emesis Grade3,[3]; [10],0
same,Emesis Grade4,[3]; [10],0
same,Fatigue Grade2,[3]; [10],2
same,Fatigue Grade3,[3]; [10],1
same,Fatigue Grade4,[3]; [10],0
same,Hand-Foot syndrome Grade1,[3]; [10],0
same,Hand-Foot syndrome Grade2,[3]; [10],3
same,Hand-Foot syndrome Grade3,[3]; [10],2
same,Hand-Foot syndrome Grade4,[3]; [10],0
same,Headache Grade1,[3]; [10],1
same,Headache Grade2,[3]; [10],0
same,Headache Grade3,[3]; [10],0
same,Headache Grade4,[3]; [10],0
same,Hemoglobin Grade1,[3]; [10],2
same,Hemoglobin Grade2,[3]; [10],1
same,Hemoglobin Grade3,[3]; [10],0
same,Hemoglobin Grade4,[3]; [10],0
same,Infection Grade1,[3]; [10],0
same,Infection Grade2,[3]; [10],1
same,Infection Grade3,[3]; [10],0
same,Infection Grade4,[3]; [10],0
same,Liver function abnormality Grade1,[3]; [10],1
same,Liver function abnormality Grade2,[3]; [10],0
same,Liver function abnormality Grade3,[3]; [10],0
same,Liver function abnormality Grade4,[3]; [10],0
same,Myalgias Grade1,[3]; [10],1
same,Myalgias Grade2,[3]; [10],0
same,Myalgias Grade3,[3]; [10],0
same,Myalgias Grade4,[3]; [10],0
same,Nausea Grade1,[3]; [10],6
same,Nausea Grade2,[3]; [10],1
same,Nausea Grade3,[3]; [10],1
same,Nausea Grade4,[3]; [10],0
same,Neutropenia Grade1,[3]; [10],0
same,Neutropenia Grade2,[3]; [10],0
same,Neutropenia Grade3,[3]; [10],1
same,Neutropenia Grade4,[3]; [10],0
same,Other toxicity Grade1,[3]; [10],3
same,Other toxicity Grade2,[3]; [10],3
same,Other toxicity Grade3,[3]; [10],2
same,Other toxicity Grade4,[3]; [10],0
same,Platelets Grade1,[3]; [10],2
same,Platelets Grade2,[3]; [10],0
same,Platelets Grade3,[3]; [10],0
same,Platelets Grade4,[3]; [10],0
same,Abdominal pain Grade1,[3]; [11],2
same,Abdominal pain Grade2,[3]; [11],0
same,Abdominal pain Grade3,[3]; [11],1
same,Abdominal pain Grade4,[3]; [11],0
same,Diarrhea Grade1,[3]; [11],2
same,Diarrhea Grade2,[3]; [11],0
same,Diarrhea Grade3,[3]; [11],1
same,Diarrhea Grade4,[3]; [11],0
same,Emesis Grade1,[3]; [11],1
same,Emesis Grade2,[3]; [11],0
same,Emesis Grade3,[3]; [11],0
same,Emesis Grade4,[3]; [11],0
same,Fatigue Grade1,[3]; [11],4
same,Fatigue Grade2,[3]; [11],1
same,Fatigue Grade3,[3]; [11],0
same,Fatigue Grade4,[3]; [11],0
same,Hand-Foot syndrome Grade1,[3]; [11],1
same,Hand-Foot syndrome Grade2,[3]; [11],1
same,Hand-Foot syndrome Grade3,[3]; [11],2
same,Hand-Foot syndrome Grade4,[3]; [11],0
same,Headache Grade1,[3]; [11],2
same,Headache Grade2,[3]; [11],0
same,Headache Grade3,[3]; [11],0
same,Headache Grade4,[3]; [11],0
same,Hemoglobin Grade1,[3]; [11],1
same,Hemoglobin Grade2,[3]; [11],0
same,Hemoglobin Grade3,[3]; [11],0
same,Hemoglobin Grade4,[3]; [11],0
same,Hypertension Grade1,[3]; [11],0
same,Hypertension Grade2,[3]; [11],1
same,Hypertension Grade3,[3]; [11],0
same,Hypertension Grade4,[3]; [11],0
same,Infection Grade1,[3]; [11],0
same,Infection Grade2,[3]; [11],0
same,Infection Grade3,[3]; [11],1
same,Infection Grade4,[3]; [11],0
same,Liver function abnormality Grade1,[3]; [11],0
same,Liver function abnormality Grade2,[3]; [11],0
same,Liver function abnormality Grade3,[3]; [11],0
same,Liver function abnormality Grade4,[3]; [11],1
same,Myalgias Grade1,[3]; [11],1
same,Myalgias Grade2,[3]; [11],0
same,Myalgias Grade3,[3]; [11],0
same,Myalgias Grade4,[3]; [11],0
same,Nausea Grade1,[3]; [11],4
same,Nausea Grade2,[3]; [11],0
same,Nausea Grade3,[3]; [11],0
same,Nausea Grade4,[3]; [11],0
same,Other toxicity Grade1,[3]; [11],3
same,Other toxicity Grade2,[3]; [11],0
same,Other toxicity Grade3,[3]; [11],1
same,Other toxicity Grade4,[3]; [11],0
same,Platelets Grade1,[3]; [11],0
same,Platelets Grade2,[3]; [11],0
same,Platelets Grade3,[3]; [11],1
same,Platelets Grade4,[3]; [11],0
same,patients requiring dose modifications,"[3]; sorafenib to 400 mg once daily, tanespimycin to one dose level lower",4 patients
same,patients with increase in Hsp70 level among those showing clinical benefit,Hsp70; after tanespimycin therapy,8 of the 10
same,samples with Hsp70 induction,Hsp70; after treatment with tanespimycin (on sorafenib),11 of 14
CO[C@H]1/C=C/C=C(\C)C(=O)NC2=CC(=O)C(N)=C(C[C@@H](C)C[C@H](OC)[C@H](O)[C@@H](C)/C=C(\C)[C@@H]1OC(N)=O)C2=O [17-AG],Cmax on days 1 and 15 compared,clinical,similar
same,Cmax (end of infusion) and AUC versus tanespimycin dose,"clinical; in vivo, iv",increased with increasing tanespimycin dose
CNC(=O)c1cc(Oc2ccc(NC(=O)Nc3ccc(Cl)c(C(F)(F)F)c3)cc2)cc[n+]1[O-] [N-oxide sorafenib],AUClast,[1]; [4],40.5 µM·h
same,Cmax,[1]; [4],7.3 µM
same,Tmax,[1]; [4],10.0 h
same,AUClast,[1]; [5],45.7 µM·h
same,Cmax,[1]; [5],6.4 µM
same,Tmax,[1]; [5],10.0 h
same,AUClast,[1]; [12],16.1 µM·h
same,Cmax,[1]; [12],2.6 µM
same,Tmax,[1]; [12],8.5 h
same,AUClast,[1]; [13],15.5 µM·h
same,Cmax,[1]; [13],2 µM
same,AUClast,[1]; [6],5.5 µM·h
same,Cmax,[1]; [6],0.7 µM
same,AUClast,[1]; [7],3.2 µM·h
same,Cmax,[1]; [7],0.5 µM
same,Tmax,[1]; [7],1.0 h
